We go through four molecules from EP1590332B1, “A PROCESS FOR THE SYNTHESIS OF BISBENZIMIDAZOLES AND THEIR DERIVATIVES” (University of Delhi, priority 2003, dated 2004).

Where two headings read alike, the source gives them in different places.

One series deals with Hek cells. The series is described as follows: Macrocolony assay (cell survival assay) with 5 Gy irradiation. Type of series: cell-based, human. The settings on record: 10uM drug added 1h before irradiation; for viability at 10 µM: Homo sapiens, HEK293, light or radiation study, read-out: Survival friction. How it is done:
Both cell lines in triplicate were washed with HBSS, plated and grown for four days before harvesting using 0.05% trypsin, Depending on the treatments, 200 to 1200 cells were plated in 90 mm petri dishes and incubated at 37°C in 5% CO2 humidified atmosphere for 8 to 10 days. Colonies were fixed with methanol and stained with 1 % crystal violet Colonies containing more than 50 cells were counted.
Exponentially growing cells, 24 h after plating were irradiated at room temperature in growth medium with a Co-60 source (Gamma cell, AECL, Canada) at a dose rate of 0.5 to 1.2 Gy/min. Concentration of 10µm drug was added 1h before irradiation. Following this procedure, cells were grown for various time intervals to study growth kinetics and plated for Macrocolony assay as shown in the following Tables 3 & 4 and figure 1 & 2 Table 3

Series [1] has as its system BMG-1 cells. As to the kind of experiment: cells. The settings on record: Homo sapiens.
Method: (§2) The cytotoxic effect of DMA and TBZ on exponentially growing tumor cells BMG-1 was studied as a function of time. Cells were treated for 1 h with the ligands and allowed to grow for 24, 48 and 72 hours. The MTT assay was performed at the specified time points. […] These experiments were done thrice in six sets. Exponentially growing cells were used in these experiments and cell survival was studied using Macrocolony assay.
(§3) Cells were washed with HBSS and harvested using 0.05% trypsin. […] Colonies were fixed in methanol and stained with 1% crystal violet. Proliferation Kinetics BMG-1 cells were seeded at 7000-8000 cells/ cm^2, and their proliferation kinetics was measured at 24-h intervals by trypsinizinig and counting total cells per flask using a hemocytometer.
The subject of series [2] is human brain malignant glioma cell line BMG-1. As to the kind of experiment: MTT microtiter plate tetrazolium cytotoxicity assay. It is filed as cell-based. The settings on record: cells treated 1 h. On the procedure:
(§1) The cytotoxic effect of DMA and TBZ on exponentially growing tumor cells BMG-1 was studied as a function of time. Cells were treated for 1 h with the ligands and allowed to grow for 24, 48 and 72 hours. The MTT assay was performed at the specified time points. […] There seemed to be no effect on the metabolic status of the treated cells. However, strikingly the metabolic activity of the treated cells seemed to be enhanced as compared to the untreated control cells. To further support our results we have performed cell survival assay at 0.1uM, 10uM and 100uM concentration of drug having control as untreated cell. These experiments were done thrice in six sets. Exponentially growing cells were used in these experiments and cell survival was studied using Macrocolony assay. The plating efficiency was nearly 77%. […] The increase in cell number as a function of time for the control as well as the treated cells remained same. The radioprotective effect of the newly synthesized ligands were studied spectroscopically as well as in human brain glioma cell line BMG-1. The spectroscopic studies done included UV-Vis sepctroscopy, Fluorescence spectroscopy, Anisotropy measurements and Lifetime measurements and Thermal denaturation studies. Calf thymus DNA was chosen as the DNA material and ligands were incubated with the DNA and irradiated at different doses of radiation. […] At the cellular level also, the ligands were incubated with the cells and cell survival assay was performed to study the radioprotective effect of the new ligands in comparison to the parent molecule Hoechst 33342.
The cytotoxicity was determined using the MTT microtiter plate tetrazolium cytotoxicity assay (MTA). The human brain malignant glioma cell line BMG-1 was used. The cytotoxicity assay was performed using 96-well microtiter plates. 3000 cells/ well were plated and treatment of the ligands was done 24 hours post plating. […] 150 µl of DMSO was added and the plate was read at 540 nm with reference at 630 nm.

For a further series, the system named is Calf thymus DNA. The series is described as follows: Thermal denaturation / spectroscopic studies of ligand-DNA complex in presence and absence of radiation. Type of series: binding. How it is done: as §1
Series [3] deals with BMG-1 cells. As to the kind of experiment: Proliferation kinetics (growth kinetics). It is filed as cell-based, human. To be noted: 100µM, exponentially growing cells. On the procedure:
The cytotoxic effect of DMA and TBZ on exponentially growing tumor cells BMG-1 was studied as a function of time. Cells were treated for 1 h with the ligands and allowed to grow for 24, 48 and 72 hours. The MTT assay was performed at the specified time points. […] There seemed to be no effect on the metabolic status of the treated cells. However, strikingly the metabolic activity of the treated cells seemed to be enhanced as compared to the untreated control cells. To further support our results we have performed cell survival assay at 0.1uM, 10uM and 100uM concentration of drug having control as untreated cell. These experiments were done thrice in six sets. Exponentially growing cells were used in these experiments and cell survival was studied using Macrocolony assay. The plating efficiency was nearly 77%. […] The increase in cell number as a function of time for the control as well as the treated cells remained same. […] The spectroscopic studies done included UV-Vis sepctroscopy, Fluorescence spectroscopy, Anisotropy measurements and Lifetime measurements and Thermal denaturation studies. […]
Cells were washed with HBSS and harvested using 0.05% trypsin. […] Proliferation Kinetics BMG-1 cells were seeded at 7000-8000 cells/ cm^2, and their proliferation kinetics was measured at 24-h intervals by trypsinizinig and counting total cells per flask using a hemocytometer. […]

The test system of series [4] is BMG-1 cells.
Method: as §2, §3
Another series is described as follows: in vitro. To be noted: bmg-1 cells.
The mark [5] stands for this setting: light or radiation study, read-out: Survival fraction, 1uM, no irradiation.
Where [6] appears, read: light or radiation study, read-out: Survival fraction, 10uM, no irradiation.
Where [7] appears, read: light or radiation study, read-out: Survival fraction, 100uM, no irradiation.
[8] abbreviates: light or radiation study, read-out: Survival fraction, Table 3: BMG-1, 5 Gy irradiation, 10uM drug added 1h before irradiation.
The mark [9] stands for this setting: read-out: Survival fraction, 1uM + 5 Gy.
[10] abbreviates: read-out: Survival fraction, 10uM + 2Gy.
Setting [11] is: read-out: Survival fraction, 10uM + 5 Gy (Table 2).
[12] abbreviates: read-out: Survival fraction, 10uM + 10 Gy.
Setting [13] is: read-out: Survival fraction, 100uM + 5 Gy.
Setting [14] is: Ratio [ligand]/[DNA] 0.01, Dose 0 Gy.
Where [15] appears, read: Ratio [ligand]/[DNA] 0.01, Dose 100 Gy.
Where [16] appears, read: Ratio [ligand]/[DNA] 0.1, Dose 0 Gy.
[17] abbreviates: Ratio [ligand]/[DNA] 0.1, Dose 100 Gy.
[18] abbreviates: Table 3: BMG-1, 5 Gy irradiation, 10uM drug added 1h before irradiation.

Method for in vitro: as §2, §3

In the case of `COc1cc(-c2nc3cc(-c4nc5cc(-c6nc7cc(N8CCN(C)CC8)ccc7[nH]6)ccc5[nH]4)ccc3[nH]2)ccc1O` [TBZ, 5-(4-methylpiperazine-1-yl)-2-[2'-{2"-(4-hydroxy-3-methoxyphenyl)-5"-benzimidazolyl}-5'-benzimidazolyl]benzimidazole], the Plating efficiency % in the series on Hek cells is 25%; in the series on BMG-1 cells [4] (1uM + 5 Gy) it was 21%; with BMG-1 cells [4] (1uM, no irradiation) it was 73%; in the series with BMG-1 cells [4] (10uM + 2Gy) it was 60%; in the series with BMG-1 cells [4] (10uM + 5 Gy (Table 2)), 20%; in the series with BMG-1 cells [4] (10uM + 10 Gy), 3.5%. Moreover, the Plating efficiency % in the series on BMG-1 cells [4] (10uM, no irradiation) is 71%; in the series with BMG-1 cells [4] (100uM + 5 Gy) it was 18%; in the series on BMG-1 cells [4] (100uM, no irradiation), 69%; in the series on BMG-1 cells [4] (setting [18]), 20%. In addition, the viability at 10 µM worked out at 48% in the series on Hek cells; 105% in the series on BMG-1 cells [1] (setting [6]); 30% in the series with BMG-1 cells [1] (setting [8]); 89% with BMG-1 cells [1] (setting [10]); 30% with BMG-1 cells [1] (setting [11]); 5% with BMG-1 cells [1] (setting [12]). Also, the viability at 1 µM in the series with BMG-1 cells [1] (setting [5]) was 107%; in the series on BMG-1 cells [1] (setting [9]), 31%. Further, the viability at 100 µM with BMG-1 cells [1] (setting [7]) is 102%; in the series on BMG-1 cells [1] (setting [13]), 26%; in the series “in vitro”, 92%. Also, the cytotoxicity entry in series [2] (100µM, MTT up to 72 hours) was “do not show any cytotoxicity”. The Tm in the series with Calf thymus DNA (setting [14]) was determined as 74.3 °C; in the series on Calf thymus DNA (setting [15]), 75 °C; with Calf thymus DNA (setting [16]), 77.7 °C; with Calf thymus DNA (setting [17]) it was 81.5 °C. The “growth kinetics of the treated cells” value in the series on BMG-1 cells [3] is reported as “did not differ from the untreated cells”. For the same molecule, the effect on growth entry was “increase in growth” with BMG-1 cells [4] (10µM, no irradiation) and “slight stimulatory effect on growth” in the series on BMG-1 cells [4] (low concentrations (upto 10µM), no irradiation). Besides, the “radioprotection in comparison to Hoechst 33342” value with BMG-1 cells [4] (conclusion from BMG-1 and Hek cell lines) is recorded as “better radioprotectors”. Besides, in the series “in vitro”, the cytotoxicity at 100 µM is 9%.
As for `CN1CCN(c2ccc3nc(-c4ccc5nc(-c6ccc(O)cc6)[nH]c5c4)[nH]c3c2)CC1` [Hoechst 33258, reference compound], the Tm with Calf thymus DNA (setting [14]) was 71.5 °C; in the series with Calf thymus DNA (setting [15]), 67.5 °C; with Calf thymus DNA (setting [16]), 81.7 °C; in the series on Calf thymus DNA (setting [17]), 79.3 °C.
In the case of `COc1ccc(-c2nc3cc(-c4nc5cc(N6CCN(C)CC6)ccc5[nH]4)ccc3[nH]2)cc1OC` [DMA, 5-(4-methylpiperazin-1-yl)-2-[2'-(3,4-dimethoxyphenyl)-5'-benzimidazolyl]benzimidazole], the Plating efficiency % in the series on Hek cells came out at 27%; with BMG-1 cells [4] (1uM + 5 Gy), 22%; in the series on BMG-1 cells [4] (1uM, no irradiation), 65%; with BMG-1 cells [4] (10uM + 2Gy), 63%; in the series on BMG-1 cells [4] (10uM + 5 Gy (Table 2)) it was 27%; in the series with BMG-1 cells [4] (10uM + 10 Gy) it was 4%. The Plating efficiency % is listed as 67% in the series on BMG-1 cells [4] (10uM, no irradiation); 25% in the series on BMG-1 cells [4] (100uM + 5 Gy); 64% with BMG-1 cells [4] (100uM, no irradiation); 27% in the series with BMG-1 cells [4] (setting [18]). Moreover, the viability at 10 µM in the series with Hek cells is 50%; in the series on BMG-1 cells [1] (setting [6]), 100%; in the series with BMG-1 cells [1] (setting [8]), 40%; in the series on BMG-1 cells [1] (setting [10]), 93%; with BMG-1 cells [1] (setting [11]), 40%; with BMG-1 cells [1] (setting [12]), 6%. The viability at 1 µM with BMG-1 cells [1] (setting [5]) was determined as 97%; in the series on BMG-1 cells [1] (setting [9]), 32%. Besides, the viability at 100 µM in the series on BMG-1 cells [1] (setting [7]) came out at 95%; with BMG-1 cells [1] (setting [13]), 38%; in the series “in vitro”, 73%. In series [2] (100µM, MTT up to 72 hours), the cytotoxicity result was “do not show any cytotoxicity”. The cytotoxicity at 10 µM in the series “in vitro” was 3%.
Consider `CCOc1ccc(-c2nc3ccc(-c4nc5ccc(N6CCN(C)CC6)cc5[nH]4)cc3[nH]2)cc1` [Hoechst 33342, reference compound], for which the Plating efficiency % in the series with Hek cells and in the series with BMG-1 cells [4] (setting [18]) was 20% throughout. Moreover, the viability at 10 µM in the series with Hek cells was found to be 10%; in the series with BMG-1 cells [1] (setting [8]) it was 10%; in “in vitro” (surviving fraction, 10µM, no irradiation), 45%. Moreover, in series [2] (10µM, MTT at 24, 48 and 72 hours), the cytotoxicity entry is given as “highly cytotoxic”. For the same molecule, the “effect on cell survival” value in the series with BMG-1 cells [4] (low concentrations, no irradiation) is on record as “do not seem to have considerable effect on cell survival”. Besides, the viability at 100 µM in the series “in vitro” (cell survival, 100µM, no irradiation) worked out at 10%.

By Tm is commonly meant the temperature at the midpoint of the melting transition.
